Test results from ChEMBL document CHEMBL1909294, “Translating clinical findings into knowledge in drug safety evaluation--drug induced liver injury prediction system (DILIps)” (PLoS Comput Biol, 2011).
Where a SMILES comes first, the peptide text is derived from it. Bridges are numbered along the chain shown (N, C = ends). [ ]: non-standard residue; d: D form. The star is where a group is joined. Threoninol(2S,3R) = C[C@@H](O)[C@H](CO)N*

Tests used:
Hepatotoxicity [1] = system: Hepatotoxicity;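 on HepSE bilirubinemia: bilirubinemia hepatic side effect score drawn from the DILIps training data, a prediction system for drug-induced liver injury; call rule not given here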;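 on HepSE cholecystitis: Cholecystitis-related hepatic side effect score drawn from the DILIps (drug-induced liver injury prediction) training data set; call rule not given here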;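 on HepSE cholelithiasis: hepatic side effect score for cholelithiasis, drawn from the DILIps training data for predicting drug-induced liver injury; call rule not given here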;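 on HepSE cirrhosis: cirrhosis hepatic side effect score taken from the DILIps (drug-induced liver injury prediction) training set; call rule not given here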;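 on HepSE elevated liver function tests: hepatic side effect score for raised liver function tests, as recorded in the DILIps training set used for predicting drug-induced liver injury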; on HepSE hepatic failure: call rule not given here;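 on HepSE hepatomegaly: hepatic side effect score for hepatomegaly, taken from the training set of the DILIps drug-induced liver injury prediction system; call rule not given here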
Hepatotoxicity [2] = system: Hepatotoxicity; remark: listed apart in the source;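 on HepSE bilirubinemia: bilirubinemia hepatic side effect score drawn from the DILIps training data, a prediction system for drug-induced liver injury; call rule not given here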;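 on HepSE cholecystitis: Cholecystitis-related hepatic side effect score drawn from the DILIps (drug-induced liver injury prediction) training data set; call rule not given here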;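 on HepSE cholelithiasis: hepatic side effect score for cholelithiasis, drawn from the DILIps training data for predicting drug-induced liver injury; call rule not given here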;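 on HepSE cirrhosis: cirrhosis hepatic side effect score taken from the DILIps (drug-induced liver injury prediction) training set; call rule not given here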;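 on HepSE elevated liver function tests: hepatic side effect score for raised liver function tests, as recorded in the DILIps training set used for predicting drug-induced liver injury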; on HepSE hepatic failure: call rule not given here;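 on HepSE hepatomegaly: hepatic side effect score for hepatomegaly, taken from the training set of the DILIps drug-induced liver injury prediction system; call rule not given here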
Hepatotoxicity [3] = system: Hepatotoxicity; remark: listed apart in the source;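 on HepSE bilirubinemia: bilirubinemia hepatic side effect score drawn from the DILIps training data, a prediction system for drug-induced liver injury; call rule not given here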;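 on HepSE cholecystitis: Cholecystitis-related hepatic side effect score drawn from the DILIps (drug-induced liver injury prediction) training data set; call rule not given here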;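 on HepSE cholelithiasis: hepatic side effect score for cholelithiasis, drawn from the DILIps training data for predicting drug-induced liver injury; call rule not given here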;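 on HepSE cirrhosis: cirrhosis hepatic side effect score taken from the DILIps (drug-induced liver injury prediction) training set; call rule not given here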;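 on HepSE elevated liver function tests: hepatic side effect score for raised liver function tests, as recorded in the DILIps training set used for predicting drug-induced liver injury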; on HepSE hepatic failure: call rule not given here
Hepatotoxicity [4] = system: Hepatotoxicity; remark: listed apart in the source;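 on HepSE bilirubinemia: bilirubinemia hepatic side effect score drawn from the DILIps training data, a prediction system for drug-induced liver injury; call rule not given here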;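 on HepSE cholecystitis: Cholecystitis-related hepatic side effect score drawn from the DILIps (drug-induced liver injury prediction) training data set; call rule not given here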;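 on HepSE cholelithiasis: hepatic side effect score for cholelithiasis, drawn from the DILIps training data for predicting drug-induced liver injury; call rule not given here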;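 on HepSE cirrhosis: cirrhosis hepatic side effect score taken from the DILIps (drug-induced liver injury prediction) training set; call rule not given here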;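 on HepSE elevated liver function tests: hepatic side effect score for raised liver function tests, as recorded in the DILIps training set used for predicting drug-induced liver injury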; on HepSE hepatic failure: call rule not given here
Hepatotoxicity [5] = system: Hepatotoxicity; remark: listed apart in the source; on HepSE hepatic failure: call rule not given here
Hepatotoxicity [6] = system: Hepatotoxicity; remark: listed apart in the source; on HepSE hepatic failure: call rule not given here
Hepatotoxicity [7] = system: Hepatotoxicity; remark: listed apart in the source
Hepatotoxicity [8] = system: Hepatotoxicity; remark: listed apart in the source
Hepatotoxicity [9] = system: Hepatotoxicity; remark: listed apart in the source
Hepatotoxicity [10] = system: Hepatotoxicity; remark: listed apart in the source
Hepatotoxicity [11] = system: Hepatotoxicity; remark: listed apart in the source
Hepatotoxicity [12] = system: Hepatotoxicity; remark: listed apart in the source
Hepatotoxicity [13] = system: Hepatotoxicity; remark: listed apart in the source
Hepatotoxicity [14] = system: Hepatotoxicity; remark: listed apart in the source

SMILES	HepSE_bilirubinemia (Hepatotoxicity [1])	HepSE_cholecystitis (Hepatotoxicity [2])	HepSE_cholelithiasis (Hepatotoxicity [3])	HepSE_cirrhosis (Hepatotoxicity [4])	HepSE_elevated liver function tests (Hepatotoxicity [5])	HepSE_hepatic failure (Hepatotoxicity [6])	HepSE_hepatic necrosis (Hepatotoxicity [7])	HepSE_hepatitis (Hepatotoxicity [8])	HepSE_hepatomegaly (Hepatotoxicity [9])	HepSE_jaundice (Hepatotoxicity [10])	HepSE_liver disease (Hepatotoxicity [11])	HepSE_liver fatty (Hepatotoxicity [12])	HepSE_liver function tests abnormal (Hepatotoxicity [13])	HepSE_Combined Scores (Hepatotoxicity [14])	further results
CC(C)(C)NC(=O)[C@@H]1C[C@@H]2CCCC[C@@H]2CN1C[C@@H](O)[C@H](Cc1ccccc1)NC(=O)[C@H](CC(N)=O)NC(=O)c1ccc2ccccc2n1															HepSE_bilirubinemia (Hepatotoxicity [1]; Liver): 1; HepSE_cholecystitis (Hepatotoxicity [2]; Liver): 0; HepSE_cholelithiasis (Hepatotoxicity [3]; Liver): 1; HepSE_cirrhosis (Hepatotoxicity [4]; Liver): 0; HepSE_elevated liver function tests (Hepatotoxicity [5]; Liver): 1; HepSE_hepatic failure (Hepatotoxicity [6]; Liver): 0; HepSE_hepatic necrosis (Hepatotoxicity [7]; Liver): 0; HepSE_hepatitis (Hepatotoxicity [8]; Liver): 1; HepSE_hepatomegaly (Hepatotoxicity [9]; Liver): 1; HepSE_jaundice (Hepatotoxicity [10]; Liver): 1; HepSE_liver disease (Hepatotoxicity [11]; Liver): 1; HepSE_liver fatty (Hepatotoxicity [12]; Liver): 0; HepSE_liver function tests abnormal (Hepatotoxicity [13]; Liver): 0; HepSE_Combined Scores (Hepatotoxicity [14]; Liver): 7
CC(=O)[C@@]1(O)CC[C@H]2[C@@H]3C[C@H](C)C4=CC(=O)CC[C@]4(C)[C@H]3CC[C@@]21C															HepSE_bilirubinemia (Hepatotoxicity [1]; Liver): 0; HepSE_cholecystitis (Hepatotoxicity [2]; Liver): 0; HepSE_cholelithiasis (Hepatotoxicity [3]; Liver): 1; HepSE_cirrhosis (Hepatotoxicity [4]; Liver): 0; HepSE_elevated liver function tests (Hepatotoxicity [5]; Liver): 0; HepSE_hepatic failure (Hepatotoxicity [6]; Liver): 1; HepSE_hepatic necrosis (Hepatotoxicity [7]; Liver): 0; HepSE_hepatitis (Hepatotoxicity [8]; Liver): 1; HepSE_hepatomegaly (Hepatotoxicity [9]; Liver): 1; HepSE_jaundice (Hepatotoxicity [10]; Liver): 1; HepSE_liver disease (Hepatotoxicity [11]; Liver): 0; HepSE_liver fatty (Hepatotoxicity [12]; Liver): 0; HepSE_liver function tests abnormal (Hepatotoxicity [13]; Liver): 0; HepSE_Combined Scores (Hepatotoxicity [14]; Liver): 5
C[C@@H](O)[C@H](CO)NC(=O)[C@@H]1CSSC[C@H](NC(=O)[C@H](N)Cc2ccccc2)C(=O)N[C@@H](Cc2ccccc2)C(=O)N[C@H](Cc2c[nH]c3ccccc23)C(=O)N[C@@H](CCCCN)C(=O)N[C@@H]([C@@H](C)O)C(=O)N1 (H-[dF]CF[dW]KTC-{Threoninol(2S,3R)}; disulfide 2-7)	1	1	1	0	0	0	0	1	0	1	0	1	0	6	
CC(C)=CCN1CC[C@]2(C)c3cc(O)ccc3C[C@H]1[C@H]2C [(+)-PENTAZOCINE]	0	0	0	0	0	0	0	0	0	0	0	0	0	0	
Nc1nc(NC2CC2)c2ncn([C@H]3C=C[C@@H](CO)C3)c2n1 [ABACAVIR]	0	0	0	0	1	1	0	0	0	0	0	1	0	3	
CC(=O)NCCCS(=O)(=O)O [ACAMPROSATE]	1	1	0	1	0	0	0	1	0	0	0	0	1	5	
C[C@H]1O[C@H](O[C@H]2[C@H](O)[C@@H](O)[C@@H](O[C@H]3[C@H](O)[C@@H](O)C(O)O[C@@H]3CO)O[C@@H]2CO)[C@H](O)[C@@H](O)[C@@H]1N[C@H]1C=C(CO)[C@@H](O)[C@H](O)[C@H]1O (stereo partly drawn) [ACARBOSE]	0	0	0	0	0	0	0	1	0	1	0	0	1	3	
CCCC(=O)Nc1ccc(OCC(O)CNC(C)C)c(C(C)=O)c1 (stereo not drawn) [ACEBUTOLOL]	0	0	0	0	0	0	0	0	0	0	0	0	0	0	
CC(=O)Nc1nnc(S(N)(=O)=O)s1 [ACETAZOLAMIDE]	0	0	0	0	0	0	1	0	0	1	0	0	0	2	
CC(=O)O [ACETIC ACID]															HepSE_bilirubinemia (Hepatotoxicity [1]; Liver): 0; HepSE_cholecystitis (Hepatotoxicity [2]; Liver): 0; HepSE_cholelithiasis (Hepatotoxicity [3]; Liver): 0; HepSE_cirrhosis (Hepatotoxicity [4]; Liver): 0; HepSE_elevated liver function tests (Hepatotoxicity [5]; Liver): 0; HepSE_hepatic failure (Hepatotoxicity [6]; Liver): 0; HepSE_hepatic necrosis (Hepatotoxicity [7]; Liver): 0; HepSE_hepatitis (Hepatotoxicity [8]; Liver): 0; HepSE_hepatomegaly (Hepatotoxicity [9]; Liver): 0; HepSE_jaundice (Hepatotoxicity [10]; Liver): 0; HepSE_liver disease (Hepatotoxicity [11]; Liver): 0; HepSE_liver fatty (Hepatotoxicity [12]; Liver): 0; HepSE_liver function tests abnormal (Hepatotoxicity [13]; Liver): 0; HepSE_Combined Scores (Hepatotoxicity [14]; Liver): 0
CC(=O)OCC[N+](C)(C)C [ACETYLCHOLINE]															HepSE_bilirubinemia (Hepatotoxicity [1]; Liver): 0; HepSE_cholecystitis (Hepatotoxicity [2]; Liver): 0; HepSE_cholelithiasis (Hepatotoxicity [3]; Liver): 0; HepSE_cirrhosis (Hepatotoxicity [4]; Liver): 0; HepSE_elevated liver function tests (Hepatotoxicity [5]; Liver): 0; HepSE_hepatic failure (Hepatotoxicity [6]; Liver): 0; HepSE_hepatic necrosis (Hepatotoxicity [7]; Liver): 0; HepSE_hepatitis (Hepatotoxicity [8]; Liver): 0; HepSE_hepatomegaly (Hepatotoxicity [9]; Liver): 0; HepSE_jaundice (Hepatotoxicity [10]; Liver): 0; HepSE_liver disease (Hepatotoxicity [11]; Liver): 0; HepSE_liver fatty (Hepatotoxicity [12]; Liver): 0; HepSE_liver function tests abnormal (Hepatotoxicity [13]; Liver): 0; HepSE_Combined Scores (Hepatotoxicity [14]; Liver): 0
CC(=O)N[C@@H](CS)C(=O)O [ACETYLCYSTEINE]	0	0	0	0	0	0	0	0	0	0	0	0	0	0	
COc1cc(C)c(/C=C/C(C)=C/C=C/C(C)=C/C(=O)O)c(C)c1C [ACITRETIN]	0	0	0	0	1	0	0	1	0	1	0	0	0	3	
Nc1nc2c(ncn2COCCO)c(=O)[nH]1 [ACYCLOVIR]	1	0	0	0	1	0	0	1	0	1	0	0	0	4	
CC(C)(C)C(=O)OCOP(=O)(COCCn1cnc2c(N)ncnc21)OCOC(=O)C(C)(C)C [ADEFOVIR DIPIVOXIL]	0	0	0	0	0	1	0	0	0	0	0	0	0	1	
Nc1ncnc2c1ncn2[C@@H]1O[C@H](CO)[C@@H](O)[C@H]1O [ADENOSINE]	0	0	0	0	0	0	0	0	0	0	0	0	0	0	
CCCSc1ccc2nc(NC(=O)OC)[nH]c2c1 [ALBENDAZOLE]	0	0	0	0	0	1	0	1	0	0	1	0	0	3	
